Assay results reported in patent publication US11524966B1 (Valo Early Discovery, Inc., priority 2017, dated 2022).

Biological target: T1, USP28 (His-tagged USP28-FL-mammalian) (Homo sapiens, UniProt Q96RU2)
T1 construct: Expression of USP28 (1-1077)-TEV-6*His (pTT5 vector); made in house; host or cells: Expi293f cells (pTT5 vector)
T1 sequence (Q96RU2 1-1077): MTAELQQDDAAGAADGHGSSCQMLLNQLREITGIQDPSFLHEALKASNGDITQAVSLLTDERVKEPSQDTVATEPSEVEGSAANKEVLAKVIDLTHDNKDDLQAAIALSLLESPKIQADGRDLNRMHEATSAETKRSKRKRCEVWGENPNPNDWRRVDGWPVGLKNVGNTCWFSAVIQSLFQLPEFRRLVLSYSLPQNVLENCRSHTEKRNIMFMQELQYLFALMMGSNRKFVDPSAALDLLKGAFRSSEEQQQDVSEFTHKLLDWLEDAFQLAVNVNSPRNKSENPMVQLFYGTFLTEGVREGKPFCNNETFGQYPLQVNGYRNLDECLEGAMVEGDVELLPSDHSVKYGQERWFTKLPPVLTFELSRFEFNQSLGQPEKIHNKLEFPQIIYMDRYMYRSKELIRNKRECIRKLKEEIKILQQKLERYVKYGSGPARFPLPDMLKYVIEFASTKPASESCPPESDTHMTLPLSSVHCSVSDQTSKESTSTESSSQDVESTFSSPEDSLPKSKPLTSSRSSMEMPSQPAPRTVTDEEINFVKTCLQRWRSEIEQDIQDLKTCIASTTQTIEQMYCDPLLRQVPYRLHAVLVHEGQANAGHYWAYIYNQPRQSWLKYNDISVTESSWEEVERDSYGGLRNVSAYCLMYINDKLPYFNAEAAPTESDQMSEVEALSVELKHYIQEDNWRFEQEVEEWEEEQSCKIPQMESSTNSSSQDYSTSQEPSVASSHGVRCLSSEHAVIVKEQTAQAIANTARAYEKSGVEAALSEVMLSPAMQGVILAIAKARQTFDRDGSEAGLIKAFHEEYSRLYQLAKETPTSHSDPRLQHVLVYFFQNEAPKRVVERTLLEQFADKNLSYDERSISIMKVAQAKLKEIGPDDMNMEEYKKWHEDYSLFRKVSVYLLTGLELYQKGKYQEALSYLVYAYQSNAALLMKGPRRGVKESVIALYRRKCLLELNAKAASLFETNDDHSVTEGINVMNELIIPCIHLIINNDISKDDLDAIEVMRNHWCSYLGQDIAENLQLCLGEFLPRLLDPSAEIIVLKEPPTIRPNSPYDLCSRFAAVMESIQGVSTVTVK
Experiment: Ubiquitin-Rhodamine 110 Assay for USP28 Activity, Example A-1(a)
Format: biochemical
Conditions: Ubiquitin-Rhodamine 110 assay, Example A-1(a); read-out: USP28 A-1(a) IC50 range
In short: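 Full-length His-tagged human USP28 (1-1077, Expi293f-expressed), […], with 25 nM Ub-Rh110 (<<Km) in pH 8.0 Tris buffer with BME, BGG, Triton X-100. 10-point dilutions (25 μM-1.3 nM), 45 min at room temperature, citric acid stop, fluorescence 485/535 nm; IC50 by 4-parameter fit.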

Row | SMILES | IC50 [µM]
1 | Cc1ccc2c(N)c(C(=O)N[C@H]3CCc4nc(N5C[C@H](N)[C@@H](C(F)(F)F)C5)ccc4C3)sc2n1 [Example 363, 3-amino-N-[(6S)-2-[(3R,4S)-3-amino-4-(trifluoromethyl)pyrrolidin-1-yl]-5,6,7,8-tetrahydroquinolin-6-yl]-6-methylthieno[2,3-b]pyridine-2-carboxamide] | 0.05 to 0.2
2 | Cc1ccc2c(N)c(C(=O)N[C@H]3CCc4nc(N5C[C@@H](N)[C@H](C(F)(F)F)C5)ccc4C3)sc2n1 [Example 364, 3-amino-N-[(6S)-2-[(3S,4R)-3-amino-4-(trifluoromethyl)pyrrolidin-1-yl]-5,6,7,8-tetrahydroquinolin-6-yl]-6-methylthieno[2,3-b]pyridine-2-carboxamide] | 0.05 to 0.2
3 | Cc1cnc2c(N)c(C(=O)N[C@H]3CCc4nc(N5C[C@H](N)C6(COC6)C5)ccc4C3)sc2n1 [Example 365, 7-amino-N-[(6S)-2-[(8R)-8-amino-2-oxa-6-azaspiro[3.4]octan-6-yl]-5,6,7,8-tetrahydroquinolin-6-yl]-3-methylthieno[2,3-b]pyrazine-6-carboxamide] | 0.001 to 0.05
4 | Cc1cnc2c(N)c(C(=O)N[C@H]3CCc4nc(N5C[C@@H](N)C6(COC6)C5)ccc4C3)sc2n1 [Example 366, 7-amino-N-[(6S)-2-[(8S)-8-amino-2-oxa-6-azaspiro[3.4]octan-6-yl]-5,6,7,8-tetrahydroquinolin-6-yl]-3-methylthieno[2,3-b]pyrazine-6-carboxamide] | 0.2 to 2
5 | Cc1ccc2c(N)c(C(=O)N[C@H]3COc4cc(N5CC[C@H](N)C5)ccc4C3)sc2n1 [Example 369, 3-amino-N-[(3R)-7-[(3S)-3-aminopyrrolidin-1-yl]-3,4-dihydro-2H-1-benzopyran-3-yl]-6-methylthieno[2,3-b]pyridine-2-carboxamide] | 0.001 to 0.05
6 | Cc1ccc2c(N)c(C(=O)N[C@H]3CCc4nc(N5C[C@H](N)[C@]6(CCCO6)C5)ccc4C3)sc2n1 [Example 390, 3-amino-N-[(6S)-2-[(5S,9S)-9-amino-1-oxa-7-azaspiro[4.4]nonan-7-yl]-5,6,7,8-tetrahydroquinolin-6-yl]-6-methylthieno[2,3-b]pyridine-2-carboxamide] | 0.2 to 2
7 | Cc1ccc2c(N)c(C(=O)N[C@H]3CCc4nc(N5C[C@@H](N)[C@]6(CCCO6)C5)ccc4C3)sc2n1 [Example 391, 3-amino-N-[(6S)-2-[(5S,9R)-9-amino-1-oxa-7-azaspiro[4.4]nonan-7-yl]-5,6,7,8-tetrahydroquinolin-6-yl]-6-methylthieno[2,3-b]pyridine-2-carboxamide] | 0.05 to 0.2
8 | Cc1ccc2c(N)c(C(=O)N[C@H]3CCc4nc(N5C[C@@H](N)[C@@]6(CCCO6)C5)ccc4C3)sc2n1 [Example 392, 3-amino-N-[(6S)-2-[(5R,9R)-9-amino-1-oxa-7-azaspiro[4.4]nonan-7-yl]-5,6,7,8-tetrahydroquinolin-6-yl]-6-methylthieno[2,3-b]pyridine-2-carboxamide] | 0.2 to 2
9 | Cc1ccc2c(N)c(C(=O)N[C@H]3CCc4nc(N5C[C@H](N)[C@@]6(CCCO6)C5)ccc4C3)sc2n1 [Example 393, 3-amino-N-[(6S)-2-[(5R,9S)-9-amino-1-oxa-7-azaspiro[4.4]nonan-7-yl]-5,6,7,8-tetrahydroquinolin-6-yl]-6-methylthieno[2,3-b]pyridine-2-carboxamide] | 0.05 to 0.2
10 | Cc1ccc2c(N)c(C(=O)N[C@H]3COc4cc(N5CC6CNC[C@](C)(C5)O6)cc(F)c4C3)sc2n1 [Example 413, 3-amino-N-[(3R)-5-fluoro-7-[(1R)-1-methyl-9-oxa-3,7-diazabicyclo[3.3.1]nonan-3-yl]-3,4-dihydro-2H-1-benzopyran-3-yl]-6-methylthieno[2,3-b]pyridine-2-carboxamide] | 0.001 to 0.05
11 | Cc1ccc2c(N)c(C(=O)N[C@H]3COc4cc(N5CC6CNC[C@@](C)(C5)O6)cc(F)c4C3)sc2n1 [Example 414, 3-amino-N-[(3R)-5-fluoro-7-[(1S)-1-methyl-9-oxa-3,7-diazabicyclo[3.3.1]nonan-3-yl]-3,4-dihydro-2H-1-benzopyran-3-yl]-6-methylthieno[2,3-b]pyridine-2-carboxamide] | 0.05 to 0.2
12 | CO[C@@H]1CN(c2cc3c(c(F)c2F)C[C@@H](NC(=O)c2sc4nc(C)ccc4c2N)CO3)C[C@H]1N [Example 415, 3-amino-N-[(3R)-7-[(3R,4R)-3-amino-4-methoxypyrrolidin-1-yl]-5,6-difluoro-3,4-dihydro-2H-1-benzopyran-3-yl]-6-methylthieno[2,3-b]pyridine-2-carboxamide] | 0.001 to 0.05
13 | CO[C@H]1CN(c2cc3c(c(F)c2F)C[C@@H](NC(=O)c2sc4nc(C)ccc4c2N)CO3)C[C@@H]1N [Example 416, 3-amino-N-[(3R)-7-[(3S,4S)-3-amino-4-methoxpyrrolidin-1-yl]-5,6-difluoro-3,4-dihydro-2H-1-benzopyran-3-yl]-6-methylthieno[2,3-b]pyridine-2-carboxamide] | 0.001 to 0.05
14 | Cc1ccc2c(N)c(C(=O)N[C@H]3CCc4cc(N5CCNCC5)c(F)c(F)c4C3)sc2n1 [Example 417, 3-amino-N-[(2S)-7,8-difluoro-6-(piperazin-1-yl)-1,2,3,4-tetrahydronaphthalen-2-yl]-6-methylthieno[2,3-b]pyridine-2-carboxamide] | 0.2 to 2
15 | Cc1ccc2c(N)c(C(=O)N[C@@H]3CCc4cc(N5CCNCC5)c(F)c(F)c4C3)sc2n1 [Example 418, 3-amino-N-[(2R)-7,8-difluoro-6-(piperazin-1-yl)-1,2,3,4-tetrahydronaphthalen-2-yl]-6-methylthieno[2,3-b]pyridine-2-carboxamide] | 0.05 to 0.2
16 | Cc1cnc2c(N)c(C(=O)N[C@H]3CCc4cc(N5CC6CNCC(C5)O6)ccc4C3)sc2n1 [Example 448, N-((2S)-6-(9-oxa-3,7-diazabicyclo[3.3.1]nonan-3-yl)-1,2,3,4-tetrahydronaphthalen-2-yl)-7-amino-3-methylthieno[2,3-b]pyrazine-6-carboxamide] | 0.001 to 0.05
17 | Cc1cnc2c(N)c(C(=O)N[C@@H]3CCc4cc(N5CC6CNCC(C5)O6)ccc4C3)sc2n1 [Example 450, N-((2R)-6-(9-oxa-3,7-diazabicyclo[3.3.1]nonan-3-yl)-1,2,3,4-tetrahydronaphthalen-2-yl)-7-amino-3-methylthieno[2,3-b]pyrazine-6-carboxamide] | 0.2 to 2
18 | Cc1ccc2c(N)c(C(=O)N[C@@H]3CCc4cc(N5CC6CNCC(C5)O6)ccc4C3)sc2n1 [Example 451, N-((2R)-6-(9-oxa-3,7-diazabicyclo[3.3.1]nonan-3-yl)-1,2,3,4-tetrahydronaphthalen-2-yl)-3-amino-6-methylthieno[2,3-b]pyridine-2-carboxamide] | 0.05 to 0.2
19 | Cc1cnc2c(N)c(C(=O)N[C@@H]3CCc4cc(N5CCCNCC5)ccc4C3)sc2n1 [Example 452, (R)-N-(6-(1,4-diazepan-1-yl)-1,2,3,4-tetrahydronaphthalen-2-yl)-7-amino-3-methylthieno[2,3-b]pyrazine-6-carboxamide] | 0.2 to 2
20 | Cc1cnc2c(N)c(C(=O)N[C@H]3CCc4cc(N5CCCNCC5)ccc4C3)sc2n1 [Example 455, (S)-N-(6-(1,4-diazepan-1-yl)-1,2,3,4-tetrahydronaphthalen-2-yl)-7-amino-3-methylthieno[2,3-b]pyrazine-6-carboxamide] | 0.05 to 0.2
21 | Cc1cnc2c(N)c(C(=O)N[C@H]3CCc4cc(N5CC6COCC(C5)N6)ccc4C3)sc2n1 [Example 456, N-((2S)-6-(3-oxa-7,9-diazabicyclo[3.3.1]nonan-7-yl)-1,2,3,4-tetrahydronaphthalen-2-yl)-7-amino-3-methylthieno[2,3-b]pyrazine-6-carboxamide] | 0.05 to 0.2
22 | Cc1cccc2c(C(=O)N[C@H]3COc4cc(N5CCNCC5)ccc4C3)cnn12 [Example 458, (R)-7-methyl-N-(7-(piperazin-1-yl)chroman-3-yl)pyrazolo[1,5-a]pyridine-3-carboxamide] | 0.001 to 0.05
23 | CC(=O)N1CCCc2cc(C(=O)N[C@H]3COc4cc(N5CCNCC5)ccc4C3)ccc21 [Example 459, (R)-1-acetyl-N-(7-(piperazin-1-yl)chroman-3-yl)-1,2,3,4-tetrahydroquinoline-6-carboxamide] | > 2
